Laboratory results published in patent US20110021621A1, “Drug for treating circulatory insufficiency” (ACTIVUS PHARMA CO., LTD., priority 2005, published 2011).
Like-named read-outs stand apart in the source and are kept apart here.

How the values were obtained:
[1] = Stability test in acidic or basic solution (half-life by liquid chromatography); assay type: physicochemical; settings: time to 50% residual rate
Experimental: The test compounds were dissolved in an acidic solution (phosphate buffer (pH3.4)) and in a basic solution (phosphate buffer (pH7.3)) at the concentration of 1 mmoL/L. Immediately after they were dissolved, each solution was analyzed with liquid chromatography using an acidic solution (phosphate buffer (pH3.4)) or basic solution (phosphate buffer (pH7.3)) as an eluent. The peak area of the test compounds was measured as the initial value. Furthermore, a time-course analysis with liquid chromatograpy was conducted to measure the peak area at each time point. The solution containing the test compound was kept in an incubator at 37° C. Based on the measured peak area of the test compounds, the percentage (%) of the peak area at each measurement time point was calculated, taking the peak area of the initial value as 100(%). The half-life (the time to show a 50% residual rate of the test compounds) of the test compounds was further calculated, and its stability was evaluated based on the half-life.

[2] = test system: circulatory insufficiency model of rats induced by injection of lauric-acid into their femoral artery; test: Circulatory insufficiency model induced by lauric-acid in rats (lesion index); assay type: in vivo, rat; parameters: key: summed toe lesion grades, +5 if heel reached; max 25 points; settings: male Wistar rats, average, max 25 points; for Lesion Index after 10 days: 30 mg/kg multiple oral dosing (1 h prior to and 3 h after lauric-acid, then twice daily for 9 days), 10 days after lauric-acid injection; for Lesion Index after 3 days: 30 mg/kg multiple oral dosing (1 h prior to and 3 h after lauric-acid, then twice daily), 3 days after lauric-acid injection
Experimental: We performed this test in order to evaluate the pharmacological effect of the compounds of the present invention using a circulatory insufficiency model of rats induced by injection of lauric-acid into their femoral artery.
13-week-old male Wistar rats (body weight is 280 to 316 g), 8 rats per one group, were used. The rats were held in a supine position under anesthesia due to administration of 40 mg/kg of sodium pentobarbital by intraperitoneal injection. Then, the right femoral area was incised, thereby injecting 0.15 mL of 10 mg/mL lauric-acid solution into the femoral artery in order to induce lower limb gangrene caused by the peripheral vascular disorder. A few drops of instant adhesive (Aron-alpha; registered trademark) were used to stop bleeding, followed by topical application of antibiotics (potassium penicillin G solution) to prevent infection, and the incision site was then sutured.
The suspension was administered, by means of multiple oral dosing, 1 hour prior to and 3 hours after injection of lauric-acid and twice daily (at 10:00 and 17:00) for the following 9 days, at the dose of 30 mg/kg for each compound. […] The suspension was administered orally 3 hours prior to injection of lauric-acid at the dose of 300 mg/kg.
The extent of lesions was evaluated 3 days and 10 days after injection of lauric acid by the following criteria:
The lesion of each toe was graded and the total points of 5 toes were use as a lesion index, wherein 5 points were further added when the lesion reached the heel (i.e. the maximum lesion index was 25 points).
The shown number refers to the average value of the lesion index obtained from the evaluation.

half-life at 1 mmoL/L ([1]; phosphate buffer pH 3.4, 37° C., read-out: Half-life, pH 3.4 solution (converted)) [h] | half-life at 1 mmoL/L ([1]; phosphate buffer pH 7.3, 37° C., read-out: Half-life, pH 7.3 solution (converted)) [h] | SMILES | Lesion Index after 10 days [2] | Lesion Index after 3 days [2]
35 | 65 | O=c1oc2ccc(-c3ccccc3)cc2c(O)c1O [C, reference compound] | – | –
– | – | CCCCCCOc1c(O)c2c(O)cccc2oc1=O [Compound 9] | 7.8 | 2.5
– | – | CCCCCCOc1c(O)c2cc(O)ccc2oc1=O [Compound 67] | 7.5 | 2.8
– | – | CCCCCCOc1c(O)c2cc(OCCCC)ccc2oc1=O [Compound 98] | 8.4 | 3.0
– | – | CCOc1c(O)c2ccc(O)cc2oc1=O [Compound 118] | 8.3 | 2.4
– | – | CCCOc1c(O)c2ccc(O)cc2oc1=O [Compound 119] | 7.1 | 2.5
– | – | CC(C)Oc1c(O)c2ccc(O)cc2oc1=O [Compound 120] | 8.0 | 2.3
– | – | CCCCOc1c(O)c2ccc(O)cc2oc1=O [Compound 121] | 7.3 | 2.8
– | – | CCCCCOc1c(O)c2ccc(O)cc2oc1=O [Compound 123] | 7.9 | 2.6
– | – | CCC(CC)Oc1c(O)c2ccc(O)cc2oc1=O [Compound 124] | 8.3 | 3.0
– | – | CCCCCCCCOc1c(O)c2ccc(O)cc2oc1=O [Compound 131] | 7.5 | 3.0
– | – | CC(C)=CCCC(C)=CCOc1c(O)c2ccc(O)cc2oc1=O [Compound 141] | 7.8 | 2.6
– | – | CC(C)=CCCC(C)=CCOc1ccc2c(O)c(OCC=C(C)CCC=C(C)C)c(=O)oc2c1 [Compound 174] | 7.5 | 2.7
– | – | CCCCOc1c(O)c2cccc(O)c2oc1=O [Compound 179] | 8.4 | 3.6
– | – | CCCCCCC=COc1c(O)c2cccc(O)c2oc1=O [Compound 196] | 7.4 | 3.3
– | – | CCCCCCOc1c(O)c2cccc(OCCCC)c2oc1=O [Compound 214] | 7.9 | 3.5
– | – | CCCCOc1c(O)c2c(OCCO)cccc2oc1=O [Compound 237] | 7.9 | 3.4

half-life at 1 mmoL/L ([1]; phosphate buffer pH 3.4, 37° C., read-out: Half-life, pH 3.4 solution (converted)) [h] | half-life at 1 mmoL/L ([1]; phosphate buffer pH 7.3, 37° C., read-out: Half-life, pH 7.3 solution (converted)) [h] | SMILES | Lesion Index after 10 days [2] | Lesion Index after 3 days [2]
– | – | CCCCC(CC)Oc1c(O)c2c(OCCO)cccc2oc1=O (centres unmarked) [Compound 244] | 7.4 | 3.5
– | – | CCCCOc1c(O)c2c(OCCCO)cccc2oc1=O [Compound 261] | 7.6 | 3.7
– | – | CCCCCCCCOc1c(O)c2c(OCC(O)CO)cccc2oc1=O (centres unmarked) [Compound 280] | 7.9 | 2.7
– | – | CCCCOc1c(O)c2c(OCC(=O)O)cccc2oc1=O [Compound 295] | 7.2 | 3.0
– | – | CCCCCCCCOc1c(O)c2c(OCCCCC(=O)O)cccc2oc1=O [Compound 333] | 7.4 | 3.0
– | – | CC(C)CCCOc1c(O)c2cc(OCCO)ccc2oc1=O [Compound 347] | 8.1 | 2.3
– | – | CCCCCCOc1c(O)c2cc(OCCC(O)CO)ccc2oc1=O (centres unmarked) [Compound 388] | 7.5 | 2.9
– | – | CCCCCCCCOc1c(O)c2cc(OCCCC(=O)O)ccc2oc1=O [Compound 429] | 7.9 | 2.2
– | – | CC(C)CCCOc1c(O)c2ccc(OCCO)cc2oc1=O [Compound 449] | 7.3 | 2.8
– | – | CCCCCCCCOc1c(O)c2ccc(OCCCO)cc2oc1=O [Compound 468] | 7.8 | 2.8
– | – | CCCCC(CC)Oc1c(O)c2ccc(OCCCCO)cc2oc1=O (centres unmarked) [Compound 477] | 7.7 | 2.9
– | – | CCCCCCCCCCOc1c(O)c2ccc(OCC(O)CO)cc2oc1=O (centres unmarked) [Compound 485] | 7.9 | 2.8
– | – | CCCCCCCCOc1c(O)c2ccc(OCCC(O)CO)cc2oc1=O (centres unmarked) [Compound 491] | 7.4 | 2.9
– | – | CCCCC(CC)Oc1c(O)c2ccc(OCC(=O)O)cc2oc1=O (centres unmarked) [Compound 506] | 7.3 | 2.7
– | – | CCCCCCOc1c(O)c2cccc(OCCO)c2oc1=O [Compound 547] | 7.2 | 3.0
– | – | CC(C)CCCOc1c(O)c2cccc(OCCO)c2oc1=O [Compound 551] | 7.8 | 2.5
– | – | CCCCCCCCOc1c(O)c2cccc(OCCCC(=O)O)c2oc1=O [Compound 633] | 7.4 | 2.6
